US20160115540A1, “PRODRUGS AND DRUGS” (Biogen MA Inc., priority 2013, published 2016)
Counter-ions that a name gives are not always drawn.

System: kidney
Experiment: Transcriptional profiling on Affymetrix GeneChips, single dose, naïve mice: kidney
Assay type: in vivo, C57BL/6 mice
Details: 100MMF-vs-Veh
Protocol: Treated mice were sacrificed at 2, 7, or 12 hours. Tissues (liver, spleen, kidney, jejunum, cortex, hippocampus, striatum and whole blood) were collected and analyzed by transcriptional profiling on mouse Affymetrix GeneChips.
Tissues (liver, spleen, kidney, jejunum, cortex, hippocampus, striatum and whole blood) were collected and analyzed by transcriptional profiling on mouse Affymetrix GeneChips.
Animals were exposed to CO2 and whole blood collected via cardiac puncture. Two 100 μl aliquots of whole blood were collected in 1.5 mL microcentrifuge tubes and snap frozen in liquid nitrogen. Peripheral (liver, spleen, kidney and jejunum) and CNS brain (cerebellum, hippocampus, striatum and cortex) tissues were harvested and snap frozen in liquid nitrogen, with special care taken to collect tissues of similar size and from the same location. All samples were stored at −80° C. until RNA extraction was conducted.
For RNA preparation, frozen tissues were placed in 2 mL RNAse-free 96-well blocks with 1.5 mL QIAzol Lysis Reagent (QIAgen) and a 3.2 mm stainless steel bead (BioSpec Products, Bartlesville, Okla.). Tissues were disrupted for four cycles of 45 seconds in a Mini-Beadbeater (Biospec Products). RNA was extracted in chloroform and the aqueous phase was mixed with an equal volume of 70% ethanol. Extracted RNA was applied to RNeasy 96 plates and purified by the spin method according to the manufacturer's protocol (RNeasy 96 Universal Tissue Protocol, QIAgen, Hilden Germany).
Automated sample amplifications and biotin labelings were carried out using the NuGEN Ovation RNA Amplification system V2 (Cat #3100), Ovation WB reagent (Cat #1300) and Encore Biotin module (Cat #4200) (NuGEN Technologies, Inc, San Carlos, Calif.) according to manufacturer's recommendations using an Arrayplex automated liquid handler (Beckman Coulter, Indianapolis, Ind.). Two micrograms of biotin labeled sscDNA probe were hybridized to Affymetrix GeneChip Affymetrix HT_MG-430_PM plate arrays with modified conditions as described in Allaire et al. Washing and staining of the hybridized arrays were completed as described in the GeneChip Expression analysis technical manual for HT plate arrays using the Genechip® Array Station (Affymetrix, Santa Clara, Calif.) with modifications as described in Allaire et al. The processed GeneChip® plate arrays were scanned using GeneTitan scanner (Affymetrix, Santa Clara, Calif.).
Affymetrix scans were subject to quality control (QC) measures. These tests included a visual inspection of the distribution of raw signal intensities and an assessment of RNA degradation, relative log expression (RLE), and normalized unsealed standard error (NUSE). All sample scans that passed these QC metrics were included in the analysis.
All CEL files were subjected to GC-content-based Robust Multi-array Average (GCRMA) normalization (version 2.20.0) (Irizarry R A, et al. Nucleic Acids Res 2003; 31:e15; Li C, et al. Genome Biol 2001; 2:[…]0032). Expression levels were log (base 2) transformed.
All calculations and analyses were carried out using R (version 2.11.1) and Bioconductor computational tools (Gentleman R. Springer Science+Business Media 2005).

With `COC(=O)/C=C/C(=O)O` [MMF, monomethyl fumarate] the “FC Gsr (1421816_PM_at)” value (7 h) was 1.83, the “FC Gsta3 (1423436_PM_at)” value (7 h) was 1.99 and the “FC Gsta3 (1423437_PM_at)” value (7 h) was 2.95. For the same compound, the “FC Gsta4 1416368_PM_at” value (7 h) was 1.85, the “FC Havcr1 1434716_PM_at” value (7 h) was 3.22 and the “FC Hfe 1450702_PM_at” value (7 h) was 1.57. For the same compound, the “FC Hist1h2be 1440330_PM_at” value (7 h) was 1.98, the “FC Hist2h3c1 1442051_PM_at” value (7 h) was 1.65 and the “FC Hmox1 1448239_PM_at” value (7 h) was 7.48. The “FC Hsp90aa1 1426645_PM_at” value (7 h) was 1.50, the “FC Ido2 1425778_PM_at” value (7 h) was −1.52 and the “FC Ikbkg 1421209_PM_s_at” value (7 h) was 1.77. The “FC Ikbkg 1435646_PM_at” value (7 h) was 1.80, the “FC Ikbkg 1454690_PM_at” value (7 h) was 1.61 and the “FC Il18 1417932_PM_at” value (7 h) was −1.52. The “FC Kif20b 1439695_PM_a_at” value (7 h) was −2.61, the “FC Lcp1 1415983_PM_at” value (7 h) was 1.59 and the “FC Lcp1 1448160_PM_at” value (7 h) was 1.56. For the same compound, the “FC Lpar2 1442291_PM_at” value (7 h) was 1.84, the “FC Lrp8 (1440882_PM_at)” value (7 h) was 2.19 and the “FC Mctp2 1457707_PM_at” value (7 h) was 1.54. The “FC Mfsd2a 1428223_PM_at” value (7 h) was −3.38, the “FC Mt1 1422557_PM_s_at” value (7 h) was 1.89 and the “FC Mt2 1428942_PM_at” value (7 h) was 2.71. The “FC Mthfd2 1419253_PM_at” value (7 h) was 1.89, the “FC Mthfd2 1419254_PM_at” value (7 h) was 1.68 and the “FC Napsa 1430744_PM_at” value (7 h) was −1.79. The “FC Ndrg1 1423413_PM_at” value (7 h) was 1.52, the “FC Ndrg1 1450977_PM_s_at” value (7 h) was 1.54 and the “FC Nmral1 1430530_PM_s_at” value (7 h) was −1.52. The “FC Nqo1 (1423627_PM_at)” value (7 h) was 1.96, the “FC Nrg1 1456524_PM_at” value (7 h) was 1.81 and the “FC Nudt11 1426887_PM_at” value (7 h) was 1.62. For the same compound, the “FC Pank1 1457110_PM_at” value (7 h) was −1.79, the “FC Pank2 1452733_PM_at” value (7 h) was −1.94 and the “FC Pard3 1434775_PM_at” value (7 h) was 1.53. The “FC Pfkfb4 1456888_PM_at” value (7 h) was 1.69, the “FC Pgd 1423706_PM_a_at” value (7 h) was 2.21 and the “FC Pgd 1438627_PM_x_at” value (7 h) was 1.78. The “FC Pgd (1436771_PM_x_at)” value (7 h) was 1.87, the “FC Pgd (1437380_PM_x_at)” value (7 h) was 1.87 and the “FC Pir (1429001_PM_at)” value (7 h) was 2.63. For the same compound, the “FC Ppm1e 1434990_PM_at” value (7 h) was −1.53, the “FC Rab38 1417700_PM_at” value (7 h) was −1.57 and the “FC Rassf6 1429262_PM_at” value (7 h) was 1.65. The “FC Rdh10 1460632_PM_at” value (7 h) was 1.68, the “FC Rhof 1455902_PM_x_at” value (7 h) was 1.66 and the “FC Rnf24 1436101_PM_at” value (7 h) was −2.03. The “FC Rock2 1451041_PM_at” value (7 h) was 1.60, the “FC Rundc3b 1434456_PM_at” value (7 h) was 1.54 and the “FC Sema3c 1420696_PM_at” value (7 h) was 1.66. The “FC Slc7a1 1454992_PM_at” value (7 h) was 1.62, the “FC Slc9a8 1454865_PM_at” value (7 h) was −1.68 and the “FC Slc16a6 1417884_PM_at” value (7 h) was 1.55. The “FC Slc20a1 1448568_PM_a_at” value (7 h) was 1.70, the “FC Slc40a1 1448566_PM_at” value (7 h) was 1.51 and the “FC Slc48a1 1450410_PM_a_at” value (7 h) was 1.58. The “FC Smcp 1418358_PM_at” value (7 h) was −1.96, the “FC Sphk2 1426230_PM_at” value (7 h) was −1.54 and the “FC Sqstm1 1450957_PM_a_at” value (7 h) was 1.62. The “FC Srxn1 (1419942_PM_at)” value (7 h) was 2.45, the “FC Srxn1 (1425351_PM_at)” value (7 h) was 2.92 and the “FC Srxn1 (1426875_PM_s_at)” value (7 h) was 2.29. For the same compound, the “FC Srxn1 (1451680_PM_at)” value (7 h) was 2.68, the “FC Syn3 1435311_PM_s_at” value (7 h) was −1.68 and the “FC Tardbp 1423723_PM_s_at” value (7 h) was 1.62. The “FC Tcte2 1425009_PM_at” value (7 h) was −1.61, the “FC Tiam2 1423186_PM_at” value (7 h) was 2.27 and the “FC Tmem86a 1428758_PM_at” value (7 h) was −1.56. For the same compound, the “FC Tnfrsf12a 1418571_PM_at” value (7 h) was 2.40, the “FC Tnfrsf12a 1418572_PM_x_at” value (7 h) was 2.45 and the “FC Trim7 1425743_PM_at” value (7 h) was −1.59. For the same compound, the “FC Trim7 1439352_PM_at” value (7 h) was −1.55, the “FC Tubb2a 1427347_PM_s_at” value (7 h) was 1.52 and the “FC Txnrd1 1421529_PM_a_at” value (7 h) was 1.72. For the same compound, the “FC Txnrd1 (1424486_PM_a_at)” value (7 h) was 3.08, the “FC Txnrd1 (1424487_PM_x_at)” value (7 h) was 2.37 and the “FC Upp2 1424969_PM_s_at” value (7 h) was −3.63. For the same compound, the “FC Upp2 1451548_PM_at” value (7 h) was −4.00, the “FC Uxs1 1426275_PM_a_at” value (7 h) was 1.50 and the “FC Vwa1 1426399_PM_at” value (7 h) was −1.69. The “FC Wdr90 1426767_PM_at” value (7 h) was −1.58, the “FC Wnt5a 1436791_PM_at” value (7 h) was 1.69 and the “FC Wnt5a 1448818_PM_at” value (7 h) was 1.81. For the same compound, the “FC Acot1 /// Acot2 1422997_PM_s_at” value (12 h) was 1.51, the “FC Aldh1a1 1416468_PM_at” value (12 h) was 2.21 and the “FC Aldh1a7 (1418601_PM_at)” value (12 h) was 3.02. The “FC Aox1 (1419435_PM_at)” value (12 h) was 2.23, the “FC Arg2 1418847_PM_at” value (12 h) was 2.70 and the “FC Atp11a 1421167_PM_at” value (12 h) was −1.62. For the same compound, the “FC C1qtnf3 1422606_PM_at” value (12 h) was −1.57, the “FC Cyp51 1422533_PM_at” value (12 h) was −1.95 and the “FC Cyp51 1422534_PM_at” value (12 h) was −1.79. The “FC Egln3 1418649_PM_at” value (12 h) was 1.71, the “FC G6pd2 /// G6pdx 1422327_PM_s_at” value (12 h) was 1.91 and the “FC Gbe1 1420654_PM_a_at” value (12 h) was 1.51. The “FC Gdf15 1418949_PM_at” value (12 h) was 2.01, the “FC Gm3776 /// Gsta1 /// Gsta2 1421041_PM_s_at” value (12 h) was 1.68 and the “FC Gpr19 1421756_PM_a_at” value (12 h) was 1.50. For the same compound, the “FC Gsta2 (1421040_PM_a_at)” value (12 h) was 1.61, the “FC Gsta3 (1423436_PM_at)” value (12 h) was 1.95 and the “FC Gsta3 (1423437_PM_at)” value (12 h) was 2.85. The “FC Gsta4 1416368_PM_at” value (12 h) was 1.95.
